ChEMBL document CHEMBL4304757, “Synthetic heterocyclic candidates as promising α-glucosidase inhibitors: An overview” (Eur J Med Chem, 2019)
One block for each compound: values may come before it.

Assays:
[1] = target: T1, Alpha glucosidase (Homo sapiens, UniProt O43451+P10253+P14410+Q2M2H8); test: Inhibition of alpha-glucosidase (unknown origin) using p-nitrophenyl-alpha-d-glucopyranoside as substrate preincubated for 30 mins followed by substrate addition measured for 60 secs by spectrophotometric analysis; format: protein assay
[2] = target: T2, Alpha amylase (Homo sapiens, UniProt P0DUB6); test: Inhibition of alpha-amylase (unknown origin) using p-nitro phenyl glucopyranoside as substrate preincubated for 10 mins followed by substrate addition measured after 10 mins
T2 sequence (P0DUB6 whole entry): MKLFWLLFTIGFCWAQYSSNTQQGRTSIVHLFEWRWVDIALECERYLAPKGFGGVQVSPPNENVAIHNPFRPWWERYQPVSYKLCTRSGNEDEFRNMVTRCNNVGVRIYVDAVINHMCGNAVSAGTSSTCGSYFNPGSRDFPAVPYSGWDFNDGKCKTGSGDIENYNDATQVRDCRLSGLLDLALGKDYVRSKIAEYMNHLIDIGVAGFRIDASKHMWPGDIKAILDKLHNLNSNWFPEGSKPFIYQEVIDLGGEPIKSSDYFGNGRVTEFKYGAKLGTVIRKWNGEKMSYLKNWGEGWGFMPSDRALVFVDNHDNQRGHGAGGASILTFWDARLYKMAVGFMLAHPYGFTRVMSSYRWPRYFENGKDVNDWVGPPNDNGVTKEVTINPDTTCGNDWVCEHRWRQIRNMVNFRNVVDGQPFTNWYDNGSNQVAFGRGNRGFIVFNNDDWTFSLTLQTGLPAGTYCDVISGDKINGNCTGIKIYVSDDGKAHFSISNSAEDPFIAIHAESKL

[3] = target: T1, Alpha glucosidase; test: Inhibition of alpha-glucosidase (unknown origin) using p-nitro phenyl glucopyranoside as substrate preincubated for 10 mins followed by substrate addition measured after 10 mins; format: protein assay
[4] = target: T1, Alpha glucosidase; test: Inhibition of alpha-glucosidase (unknown origin) using p-nitrophenyl-alpha-d-glucopyranoside as substrate preincubated for 5 mins followed by substrate addition measured after 30 mins; format: protein assay
[5] = target: T1, Alpha glucosidase; test: Potency index, ratio of acarbose IC50 to compound IC50 for inhibition of alpha-glucosidase (unknown origin) using p-nitrophenyl-alpha-d-glucopyranoside as substrate preincubated for 5 mins followed by substrate addition measured after 30 mins; format: protein assay
[6] = target: T1, Alpha glucosidase; test: Competitive inhibition of alpha-glucosidase (unknown origin) using p-nitrophenyl-alpha-d-glucopyranoside as substrate preincubated for 10 mins followed by substrate addition measured after 20 mins; format: protein assay
[7] = target: T1, Alpha glucosidase; test: Inhibition of alpha-glucosidase (unknown origin) using p-nitrophenyl-alpha-d-glucopyranoside as substrate preincubated for 10 mins followed by substrate addition measured after 20 mins; format: protein assay
[8] = Inhibition of urease (unknown origin) assessed as reduction in ammonia production using urea as substrate after 15 mins by indophenol method
[9] = target: T1, Alpha glucosidase; test: Inhibition of alpha-glucosidase (unknown origin) using pNPG as substrate preincubated for 15 mins followed by substrate addition; format: protein assay
[10] = Inhibition of yeast alpha-glucosidase using p-nitrophenyl-alpha-d-glucopyranoside as substrate preincubated with enzyme followed by substrate addition measured after 30 mins by spectrophotometric analysis; set-up: species or system Saccharomyces cerevisiae
[11] = target: T1, Alpha glucosidase; test: Inhibition of alpha-glucosidase (unknown origin) using p-nitro phenyl glucopyranoside as substrate preincubated for 5 mins followed by substrate addition measured after 30 mins; format: protein assay
[12] = Inhibition of rat intestinal maltase-glucoamylase using p-nitrophenyl alpha-D-glucoside as substrate preincubated for 5 mins followed by substrate addition and measured after 30 mins
[13] = Inhibition of yeast alpha-glucosidase; set-up: species or system Saccharomyces cerevisiae
[14] = Inhibition of mouse alpha-glucosidase
[15] = target: T1, Alpha glucosidase; test: Inhibition of alpha-glucosidase (unknown origin) using p-nitro phenyl glucopyranoside as substrate preincubated for 10 mins followed by substrate addition measured after 30 mins; format: protein assay
[16] = target: T1, Alpha glucosidase; test: Non-competitive inhibition of alpha-glucosidase (unknown origin) using p-nitro phenyl glucopyranoside as substrate preincubated for 10 mins followed by substrate addition measured after 30 mins; format: protein assay
[17] = target: T1, Alpha glucosidase; test: Inhibition of alpha-glucosidase (unknown origin) using p-nitrophenyl-alpha-d-glucopyranoside as substrate preincubated for 30 mins followed by substrate addition measured after 60 mins; format: protein assay

SMILES: Oc1ccc(Br)cc1-c1nc2cc(Cl)ccc2s1
- IC50 [1]: 22 µM

SMILES: Oc1ccc(-c2nc3ccc(Br)cc3[nH]2)cc1
- IC50 [8]: 8.3 µM

SMILES: Cc1cccc2nc(-c3ccccc3Cl)[nH]c12
- IC50 [9]: 5.3 µM

SMILES: Cc1ccccc1C(=O)/N=c1\scc(C)n1-c1cc(Cl)c(Cl)cc1Cl
- IC50 [4]: 0.15 µM
- Ratio IC50 [5]: 255

SMILES: Clc1ccc(/N=c2\scc(-c3ccc(Cl)cc3)n2Nc2ccccc2)cc1
- IC50 [17]: 9.6 µM

SMILES: C(=N\Nc1nc(-c2ccc(-c3ccccc3)cc2)cs1)/c1cccc2ccccc12
- IC50 [1]: 6.2 µM

Next, values leading:

- IC50 [2]: 0.85 µM
- IC50 [3]: 0.55 µM
SMILES: CCOC(=O)CN1C(=O)S/C(=C/c2ccc(-n3ccc4c(Br)ccnc43)cc2)C1=O

- IC50 [4]: 0.15 µM
- Ratio IC50 [5]: 255
SMILES: Cc1cs/c(=N\C(=O)c2cccc3ccccc23)n1-c1cc(Cl)c(Cl)cc1Cl

- Ki [6]: 22 µM
- IC50 [7]: 20 µM
SMILES: Cc1ccc(C(c2c(N)c3ccccc3oc2=O)c2c(N)c3ccccc3oc2=O)cc1

- IC50 [10]: 10 µM
SMILES: O=C(CCCSc1nc2ccccc2s1)Nc1cccc2ccccc12

- IC50 [11]: 0.07 µM
- IC50 [12]: 0.04 µM
SMILES: O=c1oc2ccccc2cc1-c1nn(C(Nc2ccc(Oc3ccc(NC(c4cccc(Br)c4)n4nc(-c5cc6ccccc6oc5=O)oc4=S)cc3)cc2)c2cccc(Br)c2)c(=S)o1 (configuration not stated)

- IC50 [13]: 97 to 119 µM
- IC50 [14]: 98 to 413 µM
SMILES: COc1ccc(/C=C/C(=O)C2=C(/C=C/c3ccc(OC)c(O)c3)Oc3[nH]c(=O)[nH]c(=O)c3C2c2ccccc2)cc1O (configuration not stated)

- IC50 [15]: 6.2 µM
- Ki [16]: 6.8 µM
SMILES: O=C(N/N=C/c1cc(Cl)cc(Cl)c1O)c1nc(-c2cc3ccccc3oc2=O)cs1

- IC50 [13]: 97 to 119 µM
- IC50 [14]: 98 to 413 µM
SMILES: COc1ccc(/C=C/C(=O)C2=C(/C=C/c3ccc(OC)c(O)c3)Oc3[nH]c(=O)[nH]c(=O)c3C2c2cc3ccccc3[nH]2)cc1O (configuration not stated)
